Numbering of substitutions follows the chain as printed. Blank lines part the entries; values can stand above or below the compound they belong to.
Legend:
Cynomolgus monkey [1] = experiment: In vivo transactivation in po dosed cynomolgus monkey blood assessed as induction ABCG1 mRNA expression after 24 hrs by PCR analysis; type: functional, organism-based; conditions: Macaca fascicularis
[2] = Cmax in cynomolgus monkey at 1 mg/kg, po by LC-MS analysis; type: ADME, organism-based, Macaca fascicularis; set-up: dose 1 mg/kg, route oral; conditions: in vivo
[3] = Tmax in cynomolgus monkey at 1 mg/kg, po by LC-MS analysis; type: ADME, organism-based, Macaca fascicularis; conditions: in vivo
[4] = Plasma concentration in cynomolgus monkey at 1 mg/kg, po after 48 hrs by LC-MS analysis; type: ADME, organism-based, Macaca fascicularis
Cynomolgus monkey [5] = experiment: Increase in plasma LDL cholesterol in orally dosed cynomolgus monkey; type: functional, Macaca fascicularis
Cynomolgus monkey [6] = experiment: In vivo transactivation of LXRbeta in cynomolgus monkey assessed as induction of ABCG1 expression at 1 mg/kg, po by PCR analysis; type: functional, Macaca fascicularis
Cynomolgus monkey [7] = experiment: Increase in plasma triglycerides in orally dosed cynomolgus monkey; type: functional, Macaca fascicularis
[8] = target: T1, Oxysterols receptor LXR-beta (Homo sapiens, UniProt P55055); experiment: Agonist activity at GAL4-tagged human LXRbeta LBD expressed in HEK293T cells after 12 hrs by luciferase reporter gene assay; type: cell-based
T1 sequence (P55055 whole entry): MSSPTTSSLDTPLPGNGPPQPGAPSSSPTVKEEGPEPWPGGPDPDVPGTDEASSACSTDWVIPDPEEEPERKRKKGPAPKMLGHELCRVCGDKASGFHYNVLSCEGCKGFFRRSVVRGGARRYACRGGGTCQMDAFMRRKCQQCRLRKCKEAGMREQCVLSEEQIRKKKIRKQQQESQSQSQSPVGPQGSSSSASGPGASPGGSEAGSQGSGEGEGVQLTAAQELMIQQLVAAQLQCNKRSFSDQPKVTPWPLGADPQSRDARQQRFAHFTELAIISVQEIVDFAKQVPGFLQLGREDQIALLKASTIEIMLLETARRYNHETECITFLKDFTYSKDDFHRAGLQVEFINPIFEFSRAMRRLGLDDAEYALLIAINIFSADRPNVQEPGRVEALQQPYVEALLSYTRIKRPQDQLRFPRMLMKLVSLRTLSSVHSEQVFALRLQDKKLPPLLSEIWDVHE

Homo sapiens = species on record: Homo sapiens; experiment: Toxicity in human assessed as decrease in mean neutrophil count at 15 mg after 7 days relative to baseline control; type: organism-based; set-up: scale not given: the % may be the effect or the level left; conditions: in vivo, 168 h
Mus musculus = experiment: Reduction in hepatic collagen deposition in mouse at 30 mg/kg, ip for 30 days; type: functional; conditions: 720 h
[9] = target: T2, Oxysterols receptor LXR-alpha (Homo sapiens, UniProt Q13133); experiment: Inverse agonist activity at LXRalpha (unknown origin) expressed in HEK293 cells 24 hrs by Dual-Glo luciferase assay; type: cell-based
T2 sequence (Q13133 whole entry): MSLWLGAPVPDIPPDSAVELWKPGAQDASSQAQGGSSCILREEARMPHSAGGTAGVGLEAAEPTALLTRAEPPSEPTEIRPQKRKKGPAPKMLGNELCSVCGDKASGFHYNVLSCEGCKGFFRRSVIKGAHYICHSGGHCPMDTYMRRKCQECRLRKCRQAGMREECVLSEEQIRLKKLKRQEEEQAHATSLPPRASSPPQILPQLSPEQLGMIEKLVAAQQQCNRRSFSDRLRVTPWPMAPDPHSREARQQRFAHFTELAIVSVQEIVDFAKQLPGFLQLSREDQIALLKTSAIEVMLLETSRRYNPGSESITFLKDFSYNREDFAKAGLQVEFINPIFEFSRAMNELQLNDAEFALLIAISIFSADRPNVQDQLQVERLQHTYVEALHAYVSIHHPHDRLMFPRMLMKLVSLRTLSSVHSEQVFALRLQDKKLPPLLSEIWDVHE

[10] = target: T1, Oxysterols receptor LXR-beta; experiment: Inverse agonist activity at LXRbeta (unknown origin) expressed in HEK293 cells 24 hrs by Dual-Glo luciferase assay; type: cell-based
[11] = test system: T3, Oxysterols receptor LXR-alpha (Homo sapiens), Q13133 [R305G]; experiment: Agonist activity at human GAL-tagged LXRbeta-LBD R305G mutant transfected in HEK293T cells assessed as co-activator recruitment using NCoR as co-repressor by TR-FRET assay relative to TO901317; type: cell-based
T3 sequence (whole entry): T2 sequence (Q13133 whole entry) with R305G

[12] = target: T1, Oxysterols receptor LXR-beta; experiment: Agonist activity at human LXRbeta-LBD (196 to 461 amino acids) expressed in HEK293T cells by luciferase reporter gene assay; type: cell-based
[13] = target: T4, Oxysterols receptor LXR-beta (Homo sapiens) (UniProt P55055); experiment: Agonist activity at human GAL-tagged LXRbeta-LBD F271A mutant transfected in HEK293T cells assessed as co-activator recruitment using D22 as co-activator by TR-FRET assay relative to TO901317; type: cell-based
T4 sequence (whole entry): T1 sequence (P55055 whole entry)

[14] = test system: T3, Oxysterols receptor LXR-alpha (Homo sapiens), Q13133 [R305G]; experiment: Agonist activity at human GAL-tagged LXRbeta-LBD R305G mutant transfected in HEK293T cells assessed as co-activator recruitment using TRAP220 as co-activator by TR-FRET assay relative to TO901317; type: cell-based
[15] = target: T4, Oxysterols receptor LXR-beta (Homo sapiens); experiment: Agonist activity at human GAL-tagged LXRbeta-LBD F271A mutant transfected in HEK293T cells assessed as co-repressor recruitment using SMRT as co-repressor by TR-FRET assay relative to TO901317; type: cell-based
[16] = target: T2, Oxysterols receptor LXR-alpha; experiment: Agonist activity at human LXRalpha-LBD (182 to 447 amino acids) expressed in HEK293T cells by luciferase reporter gene assay; type: cell-based
[17] = target: T1, Oxysterols receptor LXR-beta; experiment: Agonist activity at human full length LXRbeta expressed in African green monkey CV-1 cells co-expressing human pCMX/RXRalpha after 20 hrs by luciferase reporter gene assay; type: cell-based
[18] = target: T2, Oxysterols receptor LXR-alpha; experiment: Agonist activity at human LXRalpha expressed in HEK293 cells after 24 hrs by One-Glo luciferase reporter gene assay; type: cell-based
[19] = target: T5, Oxysterols receptor LXR-alpha (Homo sapiens) (UniProt Q13133); experiment: Agonist activity at human LXRalpha expressed in HEK293 cells after 24 hrs by One-Glo luciferase reporter gene assay relative to TO901317; type: cell-based
T5 sequence (whole entry): T2 sequence (Q13133 whole entry)

- EC50 (Cynomolgus monkey [1]): 610 nM
- Cmax [2]: 2230 nM
- Tmax [3]: 2 h
- concentration at 48 h [4]: 154 nM
SMILES: CC(C)(O)c1cn(-c2ccc(-c3cccc(S(C)(=O)=O)c3)cc2)c(C(C)(C)c2ccccc2Cl)n1 [BMS-779788]
- fold change (FC) (Cynomolgus monkey [5]): 12
- fold change (FC) (Cynomolgus monkey [6]): 4.7
- fold change (FC) (Cynomolgus monkey [7]): 29

- EC50 [8]: 720 nM
SMILES: Cc1c(C(=O)OC(C)C(=O)N2CCNC2=O)oc2cc(F)ccc12 (stereo not drawn)

SMILES: CC(C)(O)c1cn(-c2ccc(-c3cc(F)c(CO)c(S(C)(=O)=O)c3)cc2F)c(C(C)(C)c2c(Cl)cccc2Cl)n1 [BMS-852927]
- Activity (Homo sapiens): 47%

- IC50 [9]: 214 nM
- IC50 [10]: 43 nM
SMILES: CCOC(=O)c1ccc(CN(Cc2ccc(-c3cccc(S(C)(=O)=O)c3)cc2)S(=O)(=O)c2c(C)cc(C)cc2C)o1
- inhibition in vivo at 30 mg/kg (Mus musculus): 90%

- Activity [11]: 31%
- EC50 [12]: 530 nM
- Activity [13]: 13%
- Activity [14]: 18%
- Activity [15]: 23%
- EC50 [16]: 150 nM
SMILES: CN(CC(=O)Nc1ccc(F)c(F)c1F)C(=O)c1ccc2c(c1)OCCO2

- EC50 [17]: 108 nM
SMILES: CS(=O)(=O)c1cccc(-c2ccc(-c3cc(C(F)(F)F)nn3-c3ccccc3Cl)s2)c1

SMILES: COC1CCN(C(=O)CC[C@@H](C)[C@H]2CC[C@H]3[C@@H]4CC=C5C[C@@H](O)CC[C@]5(C)[C@H]4CC[C@]23C)CC1
- EC50 [18]: 230 nM
- Emax [19]: 58%

SMILES: C[C@H](CCC(=O)N(C)C)[C@H]1CC[C@H]2[C@@H]3CC=C4C[C@@H](O)CC[C@]4(C)[C@H]3CC[C@]12C
- EC50 [18]: 422 nM
- Emax [19]: 45%

Source: ChEMBL document CHEMBL4257563, “Recent Advances in the Medicinal Chemistry of Liver X Receptors” (J Med Chem, 2018)
